Assay results taken from patent publication US10597388B2, “Pyridazinone herbicides” (FMC CORPORATION, priority 2014, dated 2020).

Experiments:
Assay in all cases: Test D controlled growth environment herbicide test, pre- and postemergence
Type in all cases: in vivo
[1] = test system: wheat, spring (spring wheat, Triticum aestivum)
In short: (§1)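 Rating is visual, 0–100 scale (100 = complete control), made against untreated plants 14–21 d after treatment in controlled growth conditions. Postemergence sprays went onto 1- to 4-leaf plants in peat medium; preemergence sprays onto silt loam after sowing; formulation included a surfactant.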

[2] = test system: blackgrass (Alopecurus myosuroides)
In short: as §1

[3] = test system: radish, wild (wild radish, Raphanus raphanistrum)
In short: as §1

[4] = test system: ryegrass, Italian (Italian ryegrass, Lolium multiflorum)
In short: as §1

[5] = test system: pigweed (Amaranthus retroflexus)
In short: as §1

[6] = test system: canarygrass (Phalaris minor)
In short: as §1

[7] = test system: buckwheat, wild (wild buckwheat, Polygonum convolvulus)
In short: as §1

[8] = test system: chamomile (scentless chamomile, Matricaria inodora)
In short: as §1

[9] = test system: bluegrass (annual bluegrass, Poa annua)
In short: as §1

[10] = test system: field violet (Viola arvensis)
In short: as §1

[11] = test system: barley, spring (spring barley, Hordeum vulgare)
In short: as §1

[12] = test system: foxtail, green (green foxtail, Setaria viridis)
In short: as §1

[13] = test system: oat, wild (wild oat, Avena fatua)
In short: as §1

[14] = Postemergence, 31 g ai/ha, scale 0 to 100 (0 no effect, 100 complete control)
[15] = Postemergence, 125 g ai/ha, visual rating on scale 0 (no effect) to 100 (complete control), 14 to 21 d
[16] = Postemergence, 250 g ai/ha, scale 0 to 100 (0 no effect, 100 complete control)
[17] = Preemergence, 125 g ai/ha, scale 0 to 100 (0 no effect, 100 complete control)
[18] = Preemergence, 250 g ai/ha, scale 0 to 100 (0 no effect, 100 complete control)
[19] = postemergence, 62 g ai/ha, scale 0 to 100, 0 no effect, 100 complete control
[20] = Preemergence, 62 g ai/ha, scale 0 to 100 (0 no effect, 100 complete control)

Structure (SMILES): CCC(=O)Oc1c(C)nn(C)c(=O)c1-c1c(C)sc2ccc(Cl)cc12 [Compound 109]
- Wheat, Spring plant response rating [1, 14]: 5
- Plant response rating, Wheat, Spring [1, 15]: 25
- Plant response rating, Wheat, Spring [1, 16]: 30
- Plant response rating (scale of 0 to 100), Wheat, Spring ([1]; Preemergence, 31 g ai/ha): 0
- Plant response rating (scale of 0 to 100), Wheat, Spring ([1]; Preemergence, 62 g ai/ha): 5
- Plant response rating, Wheat, Spring [1, 17]: 20
- Plant response rating, Wheat, Spring [1, 18]: 40
- Plant response rating, Wheat, Spring [1, 19]: 15
- Blackgrass plant response rating [2, 14]: 20
- Plant response rating, Blackgrass [2, 15]: 65
- Plant response rating, Blackgrass [2, 16]: 75
- Plant response rating (scale of 0 to 100), Blackgrass ([2]; Preemergence, 31 g ai/ha): 25
- Plant response rating, Blackgrass [2, 20]: 25
- Plant response rating, Blackgrass [2, 17]: 75
- Plant response rating, Blackgrass [2, 18]: 80
- Plant response rating, Blackgrass [2, 19]: 30
- Radish, Wild plant response rating [3, 14]: 75
- Plant response rating, Radish, Wild [3, 15]: 90
- Plant response rating, Radish, Wild [3, 16]: 100
- Plant response rating (scale of 0 to 100), Radish, Wild ([3]; Preemergence, 31 g ai/ha): 25
- Plant response rating (scale of 0 to 100), Radish, Wild ([3]; Preemergence, 62 g ai/ha): 75
- Plant response rating, Radish, Wild [3, 17]: 90
- Plant response rating, Radish, Wild [3, 18]: 95
- Plant response rating, Radish, Wild [3, 19]: 75
- Ryegrass, Italian plant response rating [4, 14]: 85
- Plant response rating, Ryegrass, Italian [4, 15]: 95
- Plant response rating, Ryegrass, Italian [4, 16]: 100
- Plant response rating (scale of 0 to 100), Ryegrass, Italian ([4]; Preemergence, 31 g ai/ha): 80
- Plant response rating (scale of 0 to 100), Ryegrass, Italian ([4]; Preemergence, 62 g ai/ha): 95
- Plant response rating, Ryegrass, Italian [4, 17]: 100
- Plant response rating, Ryegrass, Italian [4, 18]: 100
- Plant response rating, Ryegrass, Italian [4, 19]: 85
- Pigweed plant response rating [5, 14]: 85
- Plant response rating, Pigweed [5, 15]: 100
- Plant response rating, Pigweed [5, 16]: 100
- Plant response rating (scale of 0 to 100), Pigweed ([5]; Preemergence, 31 g ai/ha): 100
- Plant response rating (scale of 0 to 100), Pigweed ([5]; Preemergence, 62 g ai/ha): 100
- Plant response rating, Pigweed [5, 17]: 100
- Plant response rating, Pigweed [5, 18]: 100
- Plant response rating, Pigweed [5, 19]: 85
- Canarygrass plant response rating [6, 14]: 40
- Plant response rating, Canarygrass [6, 15]: 80
- Plant response rating, Canarygrass [6, 16]: 90
- Plant response rating (scale of 0 to 100), Canarygrass ([6]; Preemergence, 31 g ai/ha): 35
- Plant response rating (scale of 0 to 100), Canarygrass ([6]; Preemergence, 62 g ai/ha): 75
- Plant response rating, Canarygrass [6, 17]: 90
- Plant response rating, Canarygrass [6, 18]: 98
- Plant response rating, Canarygrass [6, 19]: 55
- Buckwheat, Wild plant response rating [7, 14]: 95
- Plant response rating, Buckwheat, Wild [7, 15]: 100
- Plant response rating, Buckwheat, Wild [7, 16]: 100
- Plant response rating (scale of 0 to 100), Buckwheat, Wild ([7]; Preemergence, 31 g ai/ha): 0
- Plant response rating, Buckwheat, Wild [7, 20]: 20
- Plant response rating, Buckwheat, Wild [7, 17]: 30
- Plant response rating, Buckwheat, Wild [7, 18]: 75
- Plant response rating, Buckwheat, Wild [7, 19]: 95
- Chamomile plant response rating [8, 14]: 80
- Plant response rating, Chamomile [8, 15]: 95
- Plant response rating, Chamomile [8, 16]: 100
- Plant response rating, Chamomile [8, 19]: 85
- Bluegrass plant response rating [9, 14]: 5
- Plant response rating, Bluegrass [9, 15]: 25
- Plant response rating, Bluegrass [9, 16]: 45
- Plant response rating (scale of 0 to 100), Bluegrass ([9]; Preemergence, 31 g ai/ha): 10
- Plant response rating, Bluegrass [9, 20]: 20
- Plant response rating, Bluegrass [9, 17]: 30
- Plant response rating, Bluegrass [9, 18]: 60
- Plant response rating, Bluegrass [9, 19]: 15
- Field Violet plant response rating [10, 14]: 90
- Plant response rating, Field Violet [10, 15]: 100
- Plant response rating, Field Violet [10, 16]: 100
- Plant response rating (scale of 0 to 100), Field Violet ([10]; Preemergence, 31 g ai/ha): 85
- Plant response rating (scale of 0 to 100), Field Violet ([10]; Preemergence, 62 g ai/ha): 100
- Plant response rating, Field Violet [10, 17]: 100
- Plant response rating, Field Violet [10, 18]: 100
- Plant response rating, Field Violet [10, 19]: 95
- Barley, Spring plant response rating [11, 14]: 0
- Plant response rating, Barley, Spring [11, 15]: 10
- Plant response rating, Barley, Spring [11, 16]: 25
- Plant response rating (scale of 0 to 100), Barley, Spring ([11]; Preemergence, 31 g ai/ha): 0
- Plant response rating, Barley, Spring [11, 20]: 0
- Plant response rating, Barley, Spring [11, 17]: 5
- Plant response rating, Barley, Spring [11, 18]: 5
- Plant response rating, Barley, Spring [11, 19]: 5
- Foxtail, Green plant response rating [12, 14]: 55
- Plant response rating, Foxtail, Green [12, 15]: 75
- Plant response rating, Foxtail, Green [12, 16]: 85
- Plant response rating (scale of 0 to 100), Foxtail, Green ([12]; Preemergence, 31 g ai/ha): 0
- Plant response rating (scale of 0 to 100), Foxtail, Green ([12]; Preemergence, 62 g ai/ha): 65
- Plant response rating, Foxtail, Green [12, 17]: 75
- Plant response rating, Foxtail, Green [12, 18]: 95
- Plant response rating, Foxtail, Green [12, 19]: 65
- Oat, Wild plant response rating [13, 14]: 95
- Plant response rating, Oat, Wild [13, 15]: 95
- Plant response rating, Oat, Wild [13, 16]: 100
- Plant response rating (scale of 0 to 100), Oat, Wild ([13]; Preemergence, 31 g ai/ha): 75
- Plant response rating (scale of 0 to 100), Oat, Wild ([13]; Preemergence, 62 g ai/ha): 80
- Plant response rating, Oat, Wild [13, 17]: 90
- Plant response rating, Oat, Wild [13, 18]: 90
- Plant response rating, Oat, Wild [13, 19]: 95
